Reference: US20160341734A1, “USE OF FLUOROQUINOLONE ANTIBIOTICS” (POSTECH ACADEMY-INDUSTRY FOUNDATION, priority 2015, published 2016)
Counter-ions that a name gives are not always drawn.

Assays:
[1] = single-photon fluorescence, ultraviolet-ray area; cited from earlier work
[2] = tested on: corneal cells of the mouse; assay: multi-photon fluorescence of corneal cells after dropping the antibiotic in the eye; type: in vivo
Experimental: Blab/c female mice after five or six weeks, gatifloxacin, hydrochloride moxifloxacin, and a multi-photon microscope including a biaxial scanner (a galvano scanner of x axis and a galvano scanner of y axis) to be used by a point scanning method were prepared.
In this Experimental Example, a two-photon microscope using a femtosecond laser as a light source was used and the multi-photon fluorescence was equally measured under the following condition throughout an experimental process.
Excitation wavelength: 780 nm for vigamox (moxifloxacin)
In order to compare fluorescence expression of hydrochloride moxifloxacin with auto-fluorescence expression of the corneal cells of the mouse, the corneal cells of the mouse which are not applied with hydrochloride moxifloxacin were first photographed.
The Blab/c mouse to be used in the experiment was anesthetized and then fixed to an eye holder for photographing the eye, and photographed by the two-photon microscope. Laser power was set as 30.8 mW, and in this case, the intensity of auto-fluorescence of the photographed mouse cornea was recorded.
In order to measure the fluorescence expression degree of the mouse cornea by vigamox (hydrochloride moxifloxacin), hydrochloride moxifloxacin of 10 μl was dropped in a left eye of the mouse and an eyelid was closed for 30 seconds. […]

[3] = two-photon excitation and emission spectrum of the antibiotics (femtosecond laser); type: physicochemical
Text: 3A illustrates an excitation spectrum of hydrochloride moxifloxacin and gatifloxacin. Here, an X axis represents a wavelength (nm) of a femtosecond laser light source used in the experiment, and a degree (a.u.) of two-photon excited fluorescence (TPF) at 700 nm to 800 nm which is a measuring range of a femtosecond laser wavelength is illustrated as a Y axis. Through the graph, it can be seen that hydrochloride moxifloxacin and gatifloxacin may represent fluorescent signals in the light source having a range of 700 nm to 800 nm which is a near-infrared wavelength. Further, in the case where the wavelength of the light source is 700 nm as shown in the intensity of the excited fluorescence graph of the Y axis, it can be seen that a fluorescent signal stronger than other wavelengths is shown. FIG. 3B illustrates an emission spectrum representing a fluorescence expression degree of each antibiotic when the femtosecond laser is applied to hydrochloride moxifloxacin and gatifloxacin. The X axis represents a wavelength (nm) and the Y axis represents the degree (a.u.) of the TPF. In the graph, in the hydrochloride moxifloxacin and the gatifloxacin, it can be seen that the fluorescent signals having wavelengths of 450 nm to 550 nm are frequently expressed and the wavelength of about 520 nm is expressed most strongly.

pseudomonas = assay: multi-photon fluorescence in bacteria; type: cell-based
Experimental: (§1) Bacteria (pseudomonas and staphylococcus) used in the experiment, hydrochloride moxifloxacin, and a biaxial scanner (a galvano scanner of x axis and a galvano scanner of y axis) to be used by a point scanning method were prepared.
(§2) In this Experimental Example, a two-photon microscope using a femtosecond laser as a light source was used, and the multi-photon fluorescence was equally measured under the following condition throughout an experimental process.
(§3) Excitation wavelength: 780 nm for vigamox(moxifloxacin)
(§4) The bacteria were incubated under the following condition.
pseudomonas-nutrient broth (nutrient medium)
(§5) 1. A bacteria stock was put in a medium of 3 mL and cultured after overnight incubation (37° C. and 200 rpm).
(§6) 2. Here, 0.03 mL of the cultured bacteria stock was taken and put in a fresh medium of 3 mL, and then cultured (37° C. and 200 rpm) up to OD600=1.5.
3. […]
(§7) In order to compare fluorescence expression of hydrochloride moxifloxacin with auto-fluorescence expression of bacteria, fluorescence expression of bacteria (pseudomonas and staphylococcus) which are not applied with hydrochloride moxifloxacin was first photographed and intensity of the auto-fluorescence expression was recorded. Subsequently, the hydrochloride moxifloxacin was administered to the medium and then the intensity of the fluorescence expression after the incubation time was measured.

staphylococcus = assay: multi-photon fluorescence in bacteria; type: cell-based
Experimental: as §1, §2, §3, §4
staphylococcus-lysogeny broth (LB medium)
as §5, §6
3. […]
as §7

Structure (SMILES) | excited light expressing the fluoroquinolone antibiotics (wavelength) [1] | fluorescence intensity in corneal endothelium layer versus auto-fluorescence ([2]; corneal endothelium layer, FIGS. 5E, 6E vs 4E) | intensity of fluorescence expression in cornea versus auto-fluorescence ([2]; laser power 30.8 mW, same as auto-fluorescence) | emission wavelength expressed most strongly ([3]; two-photon emission spectrum) | light source wavelength with fluorescent signal stronger than other wavelengths ([3]; two-photon excitation spectrum, 700 nm to 800 nm measured) | difference in signal intensity after versus before administering (pseudomonas) | fluorescence signal intensity after administering (pseudomonas; FIG. 18, before administering 9.5334 a.u.) | difference in signal intensity after versus before administering (staphylococcus) | fluorescence signal intensity after administering (staphylococcus; FIG. 18, before administering 10.4277 a.u.)
COc1c(N2CCNC(C)C2)c(F)cc2c(=O)c(C(=O)O)cn(C3CC3)c12 (stereo not drawn) [gatifloxacin] | 292 nm | higher than the fluorescence intensity of the auto-fluorescence expression | much larger than that of the auto-fluorescence expression | about 520 nm | 700 nm | – | – | – | –
COc1c(N2C[C@@H]3CCCN[C@@H]3C2)c(F)cc2c(=O)c(C(=O)O)cn(C3CC3)c12 [hydrochloride moxifloxacin, moxifloxacin] | – | – | – | – | – | about 10 times | 101.2196 a.u. | 10 times | 110.3189 a.u.
